The target of series [1] is Human neutrophil elastase (Homo sapiens (Human), UniProt P08246). The series is described as follows: Human Neutrophil Elastase Assay. It is filed as biochemical. Conditions: human neutrophil elastase, substrate MeOSuc-Ala-Ala-Pro-Val-AMC, pH 7.5; read-out: IC50. The protocol: Human Neutrophil Elastase Assay
Materials: Human neutrophil elastase was purchased from Calbiochem (Cat.No.: 324681) and the elastase substrate MeOSuc-Ala-Ala-Pro-Val-AMC from Bachem (Cat.No.: I-1270). All other materials were of the highest grade commercially available.
The following buffers were used: Compound buffer: 100 mM Tris, 500 mM NaCl, adjusted to pH 7.5; Assay buffer: 100 mM Tris, 500 mM NaCl, adjusted to pH 7.5, containing 0.01% BSA.
Assay conditions: Test compounds were prediluted in DMSO and subsequently in compound buffer (5% DMSO final). 5 μL of these compound dilutions were mixed with 10 μl Neutrophil elastase (9 ng/ml in assay buffer) in a black 384 well OptiPlate (Perkin Elmer, Cat No.: 6007270) and incubated for 15 min at room temperature. Subsequently 10 μL substrate solution in assay buffer were added (250 nM final concentration) and the plates were incubated for 60 min at room temperature. After inactivation of the enzyme, fluorescence intensities were measured at 380 nm excitation and 460 nm emission wavelengths.
Each plate contains wells with a high value control (DMSO+enzyme+substrate) and wells with a low value control (DMSO+inactivated enzyme+substrate). IC50 values were estimated using a sigmoidal concentration response curve with variable slope. Means of low values were taken as 0%, means of high values as 100%.

The target of series [2] is neutrophil elastase in human plasma (Homo sapiens (Human), UniProt P08246). The series can be described thus: Assay for the Determination of Neutrophil Elastase Inhibitory Activity in Human Plasma. As to conditions: neutrophil elastase enriched human plasma (zymosan-stimulated blood). It counts as biochemical. The protocol: Assay for the Determination of Neutrophil Elastase Inhibitory Activity in Human Plasma
Citrated blood from human healthy donors is mixed with zymosan suspension and incubated at room temperature. This leads to the stimulation of neutrophils and the release of neutrophil elastase into the plasma. The stimulated blood is centrifuged to generate the neutrophil elastase enriched plasma.
Preparation of Zymosan Working Solution:
• single 45 ml blood sample is taken into a 50 ml tube containing citrate (3.13%, 5 mL) and the tube is gently inverted 4 times. • Immediately after blood sampling, zymosan working solution (5 mL) is added. • After the addition of zymosan working solution, the tubes are capped, mixed gently and incubated at 22° C. for 15 min on a shaker at 20 rpm. • Make 10 ml aliquots after the incubation time. • Centrifuge the 15 ml tubes at 800 g for […] at 4° C. in a Jouan centrifuge. • Harvest the plasma and make 1-5 ml aliquots. • Store the plasma at −80° C.
Various concentrations of the neutrophil elastase inhibitor are incubated with plasma. Subsequently, the enzyme activity is measured using the fluorogenic substrate MeOSuc-Ala-Ala-Pro-Val-AMC (Bachem Cat. No. 1-1270, substrate concentration: 250 μM, pH 7.5, 25 mM TRIS buffer, 250 mM NaCl) in analogous fashion as described for the human neutrophil assay. A dose response curve is generated to calculate the EC50 of the inhibitor. The analysis of the data is performed by the calculation of the percentage of fluorescence in the presence of the test compound compared to the fluorescence of the vehicle control after subtracting the background fluorescence: An inhibitor of the neutrophil elastase enzyme will give values between 100% control (no inhibition) and 0% control (complete inhibition). The human plasma shift of selected compounds can be calculated using the following equation: Human plasma shift=(EC50 in human plasma assay)/(IC50 in human neutrophil elastase assay) The EC50 values of selected compounds in the human plasma assay described above are listed in Table 14.

Series [3] is described as follows: Assay for the Determination of Metabolic Stability with Human Liver Microsomes. It is filed as in vitro ADME. As to conditions: pooled human liver microsomes, 37° C., NADPH. The protocol:
Assay for the Determination of Metabolic Stability with Human Liver Microsomes
The metabolic degradation of the test compound is assayed at 37° C. with pooled human liver microsomes. The final incubation volume of […] per time point contains TRIS buffer pH 7.6 (0.1 M), magnesium chloride (5 mM), microsomal protein (1 mg/ml) and the test compound at a final concentration of […]. Following a short preincubation period at 37° C., the reactions are initiated by addition of beta-nicotinamide adenine dinucleotide phosphate, reduced form (NADPH, 1 mM) and terminated by transfering an aliquot into acetonitrile after different time points. Additionally, the NADPH-independent degradation is monitored in incubations without NADPH, terminated at the last time point. The rol remaining test compound after NADPH independent incubation is reflected by the parameter c(control) (metabolic stability). The quenched incubations are pelleted by centrifugation (10′000 g, 5 min) An aliquot of the supernatant is assayed by LC-MS/MS for the amount of parent compound.
The half-life (t1/2 INVITRO) is determined by the slope of the semilogarithmic plot of the concentration-time profile. The intrinsic clearance (CL_[…]) is calculated by considering the amount of protein in the incubation: CL_[…][μl/min/mg protein]=(ln 2/(half-life [min]*protein content [mg/ml]))*1′000.
The half-life (t1/2 INVITRO) values of selected compounds in the metabolic stability assay described above are listed in Table 15.

Series [4] can be described thus: Assay for the Determination of Metabolic Stability with Human Hepatocytes. It counts as in vitro ADME. Conditions: scaled with well stirred model. The protocol:
Assay for the Determination of Metabolic Stability with Human Hepatocytes
The metabolic degradation of the test compound is assayed in a human hepatocyte suspension. Human hepatocytes (typically cryopreserved) are incubated in an appropriate buffer system (e.g. Dulbecco's modified eagle medium plus 3.5 μg glucagon/500 mL, 2.5 mg insulin/500 mL and 3.75 mg/500 mL hydrocortison) containing 5% species serum. Following a (typically) […] preincubation in an incubator (37° C., 10% CO2), 5 μl of test compound solution (80 μM; from 2 mM stock solution in DMSO diluted 1:25 with medium) are added into 395 μl hepatocyte suspension (cell density in the range 0.25-5*10^6 cells/mL, typically 1*10^6 cells/mL; final concentration of test compound 1 μM, final DMSO concentration […]). The cells are incubated for six hours (incubator, orbital shaker) and samples (25 μl) are taken at 0, 0.5, 1, 2, 4 and 6 hours. Samples are transferred into acetonitrile and pelleted by centrifugation (5 min). The supernatant is transferred to a new 96-deepwell plate, evaporated under nitrogen and resuspended. The decline of parent compound is analyzed by LC-MS/MS.
The intrinsic clearance CL_[…] is calculated as follows: CL_[…]=Dose/AUC=(C0/CD)/(AUD+clast/k)*1′000/60 (C0: initial concentration in the incubation [μM], CD: cell density of vital cells [10^6 cells/mL], AUD: area under the data [μM*h], clast: concentration of last data point [μM], k: slope of the regression line for parent decline [h^−1])
The calculated in vitro hepatic intrinsic clearance can be scaled up to the intrinsic in vivo hepatic clearance and used to predict hepatic in vivo blood clearance (CL) by the use of a is liver model (well stirred model): CL_[…]_INVIVO [ml/min/kg]=(CL_[…] [μL/min/10^6 cells]* hepatocellularity[10^6 cells/g liver]*liver factor[g/kg bodyweight])/1′000 CL[ml/min/kg]=CL_[…]_INVIVO [ml/min/kg]*hepatic blood flow [ml/min/kg]/(CL_[…]_INVIVO [ml/min/kg]+hepatic blood flow [ml/min/kg]) Qh[%]=CL[ml/min/kg]/hepatic blood flow[ml/min/kg]) (Hepatocellularity, human: 120*10^6 cells/g liver; lver factor, human: 25.7 g/kg bodyweight; blood flow, human: 21 ml/(min*kg))
The predicted human hepatic in vivo blood clearance (CL) of selected compounds in the metabolic stability assay described above are listed in Table 16.

The nature of series [5]: Assay for Determination of Aqueous Solubility. It is filed as physicochemical. Conditions: McIlvaine buffer pH 6.8, 2.5% DMSO, 24 h. The protocol:
Assay for Determination of Aqueous Solubility
The aqueous solubility of a compound is determined by comparing the amount dissolved in aqueous buffer (containing 2.5% DMSO) to the amount dissolved in an acetonitrile/water (1/1) solution. Starting from a 10 mM DMSO stock solution, aliquots are diluted with acetonitrile/water (1/1) and Mcllvaine buffer pH 6.8, respectively. After 24 h of shaking, the solutions or suspensions are filtered and analyzed by LC-UV. The amount dissolved in buffer is compared to the amount dissolved in the acetonitrile/water (1/1) solution. Solubility is measured from 0.001 to 0.125 mg/ml at a DMSO concentration of 2.5%. If more than 90% of the compound is dissolved in buffer, the value is marked with “>”.

The next series relates to Caco-2 cell monolayers. The series is described as follows: Assay for Determination of Drug Transport Across Human CACO-2 Cells. It is filed as in vitro ADME. Conditions: for Efflux ratio: Caco-2, PEBA/PEAB; for PEAB: Caco-2, apical-to-basal; for PEAB / PEBA: pH 7.2, 37° C.; for PEBA: Caco-2, basal-to-apical. From the text: Assay for Determination of Drug Transport Across Human CACO-2 Cells
The assay provides information on the potential of a compound to pass the cell membrane, on the extent of oral absorption as well as on whether the compound is actively transported by uptake and/or efflux transporters. For the measurement of permeability across polarized, confluent human cancer colon carcinoma cells 2 (Caco-2) cell monolayers grown on permeable filter supports are used as the in vitro absorption model. Apparent permeability coefficients (PE) of the compounds across the Caco-2 monolayers are measured (pH 7.2, 37° C.) in apical-to-basal (AB) (absorptive) and basal-to-apical (BA) (secretory) transport direction. AB permeability (PEAB) represents drug absorption from the intestine into the blood and BA permeability (PEBA) drug secretion from the blood back into the intestine via both passive permeability as well as active transport mechanisms mediated by efflux and uptake transporters that are expressed on the Caco-2 cells. The compounds are assigned to permeability/absorption classes by comparison of the AB permeabilities with the AB permeabilities of reference compounds with known in vitro permeability and oral absorption in the human. Identical or similar permeabilities in both transport directions indicate passive permeation, vectorial permeability points to additional active transport mechanisms. […] Active transport is concentration-dependently saturable.
Caco-2 cells (1−2*10^5 cells/cm^2 area) are seeded on filter inserts (Costar transwell polycarbonate or PET filters, […] pore size) and cultured (DMEM) for 10 to 25 days. Compounds are dissolved in appropriate solvent (like DMSO, 1-20 mM stock solutions). Stock solutions are diluted with HTP-4 buffer (128.13 mM NaCl, 5.36 mM KCl, 1 mM MgSO4, 1.8 mM CaCl2, 4.17 mM NaHCO3, 1.19 mM Na2HPO4×7H2O, 0.41 mM NaH2PO4×H2O, 15 mM HEPES, 20 mM glucose, pH 7.2) to prepare the transport solutions (typically […] compound, final DMSO <=0.5%). The transport solution (TL) is applied to the apical or basolateral donor side for measuring A-B or B-A permeability (3 filter replicates), respectively. The receiver side contains HTP-4 buffer supplemented with 2% BSA. Samples are collected at the start and end of experiment from the donor and at various time intervals for up to 2 hours also from the receiver side for concentration measurement by LC-MS/MS or scintillation counting. Sampled receiver volumes are is replaced with fresh receiver solution.
The apparent permeability coefficients (PEAB and PEBA) and efflux ratios (PEBA/PEAB) of selected compounds in the Caco-2 drug transport assay described above are listed in Table 17.
(In general: Passage across Caco-2 layers is used to estimate intestinal permeability.)

Structures are written as SMILES. pEC50, pIC50: −log10 of the molar value. Some results are limits rather than exact numbers.

Human neutrophil elastase, sequence (P08246 30-267): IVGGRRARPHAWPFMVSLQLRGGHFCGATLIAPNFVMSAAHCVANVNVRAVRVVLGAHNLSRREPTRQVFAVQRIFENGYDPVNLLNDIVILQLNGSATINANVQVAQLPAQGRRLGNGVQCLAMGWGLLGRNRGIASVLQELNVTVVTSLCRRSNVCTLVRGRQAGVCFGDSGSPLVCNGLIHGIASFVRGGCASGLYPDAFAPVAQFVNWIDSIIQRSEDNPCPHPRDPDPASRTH
neutrophil elastase in human plasma, sequence (P08246 30-267): as above

Usually pIC50 stands for −log10 of the IC50, conventionally taken in molar units. By pEC50 is commonly meant the EC50 on a negative log10 scale, so that one unit is a factor of ten. The low end stands for a large EC50, the high end for a small EC50. Usually Aqueous solubility stands for the dissolved amount per volume that the medium holds. In the case of `CS(=O)(=O)c1cc(C#N)ccc1[C@@H]1C2=C(CCCC2=O)N(c2cccc(C(F)(F)F)c2)C(=O)N1C(=O)NC1CCOCC1` [Example 75.16], the pIC50 in series [1] is above 9.00. For the same compound, the pEC50 in series [2] is 9.00. Also, the “t1/2 INVITRO” value in series [3] was above 2.17 h. Also, the “CL (predicted human hepatic in vivo blood clearance)” value in series [4] is 0 mL/min/kg. The compound also returned an Aqueous solubility in series [5] of 66 µg/mL.
Regarding `CS(=O)(=O)c1cc(C#N)ccc1C1C2=C(CCCC2=O)N(c2cccc(C(F)(F)F)c2)C(=O)N1CCCO` (stereo not shown) [Example 58.2], the pIC50 in series [1] is 8.92. The pEC50 in series [2] was 8.52. The “t1/2 INVITRO” value in series [3] was above 2.17 h. For the same compound, the “CL (predicted human hepatic in vivo blood clearance)” value in series [4] is 3 mL/min/kg. Moreover, in series [5], the Aqueous solubility came to 56 µg/mL.
As for `CC(C)NC(=O)N1C(=O)N(c2cccc(C(F)(F)F)c2)C2=C(C(=O)CCC2)[C@H]1c1ccc(C#N)cc1S(C)(=O)=O` [Example 75.3], in series [3], the “t1/2 INVITRO” value was above 2.17 h. For the same compound, in series [4], the “CL (predicted human hepatic in vivo blood clearance)” value is 0 mL/min/kg. In the series on Caco-2 cell monolayers, the Efflux ratio came to 3.7, the PEAB was 22.8 ×10⁻⁶ cm/s and the PEBA turned out to be 85.3 ×10⁻⁶ cm/s. Moreover, in series [5], the Aqueous solubility turned out to be 9 µg/mL.
Take `CCNC(=O)N1C(=O)N(c2cccc(C(F)(F)F)c2)C2=C(C(=O)CCC2)C1c1ccc(C#N)cc1S(C)(=O)=O` (stereo not shown) [Example 47.1]: the pIC50 in series [1] is above 9.00. In series [2], this compound showed a pEC50 of 9.00. Also, in the series with Caco-2 cell monolayers, the Efflux ratio stood at 5.4, the PEAB was found to be 15 ×10⁻⁶ cm/s and the PEBA was 81 ×10⁻⁶ cm/s. In series [5], this compound gave an Aqueous solubility of 73 µg/mL.

The values above are taken from USRE47493E1, “Substituted bicyclic dihydropyrimidinones and their use as inhibitors of neutrophil elastase activity” (Boehringer Ingelheim International GmbH, priority 2014, dated 2019).
